Test results published in patent US5866775A, “Glyphosate-tolerant 5-enolpyruvyl-3-phosphoshikimate synthases” (Monsanto Company, priority 1990, dated 1999).

Molecular target: T1, pMON8252 encoded petunia EPSPS variant, glycine (101) to alanine and alanine (192) to threonine (Petunia hybrida, UniProt P11043, A264T/G173A)
T1 construct: alanine 192 in the mature petunia EPSP synthase; made in house; host or cells: E. coli SR481 (aroA-)
Assay: EPSP synthase kinetic constants (appKm PEP, appKi glyphosate)
Type: biochemical
Details: extract of SR481 cells with pMON8252
Procedure: The balance of the #742 preculture (~750 μl) was used to inoculate 2 ml of 2XYT medium containing 50 μg/ml carbenicillin and was shaken overnight at 37° C. to reach saturation. Plasmid DNA was isolated from an aliquot of the saturated culture using an alkaline lysis procedure. The plasmid was designated pMON8252. An aliquot of the pMON8252 plasmid was used to transform the E. coli host SR481 (described above) and reselected on MOPS medium containing 10 mM glyphosate and 50 μg/ml carbenicillin. A single glyphosate resistant colony of pMON8252 was picked off the selection plate and used to inoculate 3 ml of 2XY1 bacterial medium containing 50 μg/ml carbenicillin. The culture was then aerated on a rotating wheel at 37° C. until saturated and then used to inoculate a larger 250 ml culture. The large culture was grown to saturation by continuously shaking it overnight at 37° C. in a water bath. The bacterial cells were lysed and the extracts were assayed for EPSPS activity.
Specifically, the bacterial cell paste was washed twice with 0.9% saline, suspended in buffer (100 mM Tris-HCl, 5 mM benzamidine HCl) and passed twice through a French Pressure Cell at 1000 psi. The cell extract was separated from the cells by centrifuging at 15,000×gravity for 10 minutes at 5° C. It was desalted using Sephadex G-50 (Pharmacia, Piscataway, N.J.). The desalted extract was assayed for EPSP synthase activity as follows.
Kinetic constants (appKm PEP and appKi glyphosate) were determined for EPSP synthase as described below. Substrate kinetic parameters were determined at pH 7.9 in 50 mM HEPES (N-[2-hydroxyethyl]piperazine-N'-[2-ethanesulfonic acid]) buffer in the presence of 2 mM S3P and varying amounts of ^14 C-PEP (10 μM-400 μM), for 2.0 minutes at 25° C. Reactions were quenched with 100 mM NaAcetate in ethanol, pH 4.5, centrifuged and analyzed for product EPSP formation by HPLC with flow radioactivity detection. HPLC conditions were 0.35M KPi, pH 6.5, on a Synchropak AX100 column at 1.0 ml/minute.

T1 sequence (P11043 73-516 G173A/A264T): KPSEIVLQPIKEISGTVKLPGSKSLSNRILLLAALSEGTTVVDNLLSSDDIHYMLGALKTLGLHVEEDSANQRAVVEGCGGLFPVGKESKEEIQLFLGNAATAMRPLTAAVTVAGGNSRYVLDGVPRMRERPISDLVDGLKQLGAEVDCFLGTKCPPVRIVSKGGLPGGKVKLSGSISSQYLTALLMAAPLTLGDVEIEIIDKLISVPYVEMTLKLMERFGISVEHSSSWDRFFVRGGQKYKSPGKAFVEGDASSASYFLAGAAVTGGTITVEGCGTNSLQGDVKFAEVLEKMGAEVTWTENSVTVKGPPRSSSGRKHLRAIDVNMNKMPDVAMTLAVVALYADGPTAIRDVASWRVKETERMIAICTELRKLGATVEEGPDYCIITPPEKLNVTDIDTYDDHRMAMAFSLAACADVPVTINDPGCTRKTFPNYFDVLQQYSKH

Structure (SMILES): C=C(OP(=O)(O)O)C(=O)O [PEP, phosphoenolpyruvate]
- Km for PEP: 54 µM
